From US11634404B2 (priority 2016, dated 2023)

Legend:
Assay type in all cases: cell-based
D3 DAR = D3 DAR (Homo sapiens (Human), UniProt P35462); settings: β-arrestin recruitment, agonist; for D3 Emax: 'curve' = wrapped cell 'curve interrupted'
D2 DAR [1] = molecular target: T1, D2 DAR (Homo sapiens (Human), UniProt P14416); settings: β-arrestin recruitment, agonist; for D2 Emax: 'curve' = wrapped cell 'curve interrupted'
D2 DAR [2] = molecular target: T1, D2 DAR; settings: β-arrestin recruitment, antagonist; for D2 Imax: 'curve' = wrapped cell 'curve interrupted'

D3 DAR, sequence (P35462 whole entry): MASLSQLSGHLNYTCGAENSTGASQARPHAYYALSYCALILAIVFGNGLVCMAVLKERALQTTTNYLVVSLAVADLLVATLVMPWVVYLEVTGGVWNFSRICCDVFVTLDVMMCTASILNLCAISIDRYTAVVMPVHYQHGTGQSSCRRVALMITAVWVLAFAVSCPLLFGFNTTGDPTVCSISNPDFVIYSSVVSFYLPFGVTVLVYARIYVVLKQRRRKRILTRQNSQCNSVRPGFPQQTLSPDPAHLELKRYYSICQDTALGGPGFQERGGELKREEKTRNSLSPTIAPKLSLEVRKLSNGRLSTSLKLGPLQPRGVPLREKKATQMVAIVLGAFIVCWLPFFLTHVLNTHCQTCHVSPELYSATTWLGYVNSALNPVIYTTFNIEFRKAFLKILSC
T1 sequence (P14416 whole entry): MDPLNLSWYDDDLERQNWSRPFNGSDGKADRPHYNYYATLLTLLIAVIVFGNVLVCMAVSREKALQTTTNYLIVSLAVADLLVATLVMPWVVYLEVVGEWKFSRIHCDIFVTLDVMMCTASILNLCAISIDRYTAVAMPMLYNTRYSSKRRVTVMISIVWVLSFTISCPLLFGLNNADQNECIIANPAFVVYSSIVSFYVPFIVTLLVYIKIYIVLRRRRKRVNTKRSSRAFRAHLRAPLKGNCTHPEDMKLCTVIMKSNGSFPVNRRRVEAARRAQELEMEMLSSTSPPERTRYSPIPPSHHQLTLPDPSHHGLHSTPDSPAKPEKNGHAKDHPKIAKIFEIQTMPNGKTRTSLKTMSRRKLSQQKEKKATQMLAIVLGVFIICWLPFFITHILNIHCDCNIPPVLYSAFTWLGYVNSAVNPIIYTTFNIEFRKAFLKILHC

Structure (SMILES): COc1ccc(C(=O)N2CCN(CCOc3ccc(OC)c(OC)c3)CC2)cc1 [Compound 38]
- EC50 (D3 DAR): 3500 nM
- D2 EC50 (D2 DAR [1]): none
- D2 Emax (D2 DAR [1]): none
- IC50 (D2 DAR [2]): > 100000 nM

Structure (SMILES): COc1ccc(C(=O)N2CCN(CCOc3ccc4c(c3)OCO4)CC2)cc1 [Compound 39]
- EC50 (D3 DAR): 310 nM
- D2 EC50 (D2 DAR [1]): none
- D2 Emax (D2 DAR [1]): none
- IC50 (D2 DAR [2]): > 10000 nM
- D2 Imax (D2 DAR [2]): 87

Structure (SMILES): COc1ccc(C(=O)N2CCN(CCOc3cccnc3)CC2)cc1 [Compound 40]
- EC50 (D3 DAR): 17 nM
- EC50 (D2 DAR [1]): 2900 nM
- IC50 (D2 DAR [2]): > 100000 nM

Structure (SMILES): COc1ccc(OCCN2CCN(C(=O)c3cc4ccc(Cl)cc4[nH]3)CC2)cc1 [Compound 52]
- EC50 (D3 DAR): 225 nM

Structure (SMILES): COc1ccc(OCCN2CCN(C(=O)c3cc4cc(Cl)ccc4[nH]3)CC2)cc1 [Compound 53]
- D2 EC50 (D2 DAR [1]): none
- D2 Emax (D2 DAR [1]): none
- D2 IC50 (D2 DAR [2]): none

Structure (SMILES): COc1ccc(OCCN2CCN(C(=O)c3cc4cccnc4[nH]3)CC2)cc1 [Compound 56]
- EC50 (D3 DAR): 167 nM

Structure (SMILES): COc1ccc(OCCN2CCN(C(=O)c3cc4ncccc4[nH]3)CC2)cc1 [Compound 59]
- EC50 (D2 DAR [1]): > 100000 nM
- D2 Emax (D2 DAR [1]): curve
- D2 IC50 (D2 DAR [2]): none

Structure (SMILES): COc1ccc(OCCN2CCN(C(=O)c3cc4ccccc4s3)CC2)cc1 [Compound 61]
- EC50 (D3 DAR): 3300 nM

Structure (SMILES): COc1ccc(OCCN2CCN(C(=O)c3cc4ccccc4o3)CC2)cc1 [Compound 62]
- D2 EC50 (D2 DAR [1]): none
- D2 Emax (D2 DAR [1]): none
- IC50 (D2 DAR [2]): 7700 nM
- D2 Imax (D2 DAR [2]): 100

Structure (SMILES): COc1ccc(C(=O)N2CCN(CCOc3ccc4c(c3)OCO4)CC2)cc1 [Compound 66]
- EC50 (D2 DAR [1]): 7400 nM
- D2 IC50 (D2 DAR [2]): None

Structure (SMILES): COc1ccc2cc(C(=O)N3CCN(CCOc4cccnc4)CC3)[nH]c2c1 [Compound 71]
- EC50 (D3 DAR): 6.4 nM

Structure (SMILES): COc1ccc2[nH]c(C(=O)N3CCN(CCOc4cccnc4)CC3)cc2c1 [Compound 72]
- EC50 (D2 DAR [1]): 2600 nM
- D2 IC50 (D2 DAR [2]): none

Structure (SMILES): Cc1cccc2cc(C(=O)N3CCN(CCOc4cccnc4)CC3)[nH]c12 [Compound 73]
- EC50 (D3 DAR): 25.7 nM

Structure (SMILES): Cc1cccc2[nH]c(C(=O)N3CCN(CCOc4cccnc4)CC3)cc12 [Compound 76]
- EC50 (D2 DAR [1]): 180 nM
- D2 IC50 (D2 DAR [2]): none

Structure (SMILES): O=C(c1cc2cccc(Cl)c2[nH]1)N1CCN(CCOc2cccnc2)CC1 [Compound 77]
- EC50 (D2 DAR [1]): 617 nM
- D2 IC50 (D2 DAR [2]): none

Structure (SMILES): O=C(c1cc2ccc(Cl)cc2[nH]1)N1CCN(CCOc2cccnc2)CC1 [Compound 78]
- EC50 (D2 DAR [1]): 183 nM
- D2 IC50 (D2 DAR [2]): none

Structure (SMILES): O=C(c1cc2cc(Cl)ccc2[nH]1)N1CCN(CCOc2cccnc2)CC1 [Compound 79]
- EC50 (D2 DAR [1]): 1400 nM
- D2 IC50 (D2 DAR [2]): none

Structure (SMILES): O=C(c1cc2c(Cl)cccc2[nH]1)N1CCN(CCOc2cccnc2)CC1 [Compound 80]
- EC50 (D2 DAR [1]): 217 nM
- D2 IC50 (D2 DAR [2]): none

Structure (SMILES): O=C(c1cc2cccnc2[nH]1)N1CCN(CCOc2cccnc2)CC1 [Compound 83]
- EC50 (D3 DAR): 13.5 nM

Structure (SMILES): COc1cccc(OCCN2CCN(C(=O)c3cc4ccccc4[nH]3)CC2)c1 [Compound 92]
- D3 EC50 (D3 DAR): none
- D3 Emax (D3 DAR): none

Structure (SMILES): COc1cccc(OCCN2CCN(C(=O)c3cc4ccccc4[nH]3)CC2)c1 [Compound 94]
- EC50 (D3 DAR): 33.8 nM

Structure (SMILES): CCc1ccc(OCCN2CCN(C(=O)c3cc4ccccc4[nH]3)CC2)cc1 [Compound 98]
- D2 EC50 (D2 DAR [1]): none
- D2 Emax (D2 DAR [1]): none
- IC50 (D2 DAR [2]): > 50000 nM

Structure (SMILES): O=C(c1cc2ccccc2[nH]1)N1CCN(CCOc2ccc(Br)cc2)CC1 [Compound 102]
- D2 EC50 (D2 DAR [1]): none
- D2 Emax (D2 DAR [1]): none
- IC50 (D2 DAR [2]): > 100000 nM

Structure (SMILES): O=C(c1cc2ccccc2[nH]1)N1CCN(CCOc2ccc([N+](=O)[O-])cc2)CC1 [Compound 103]
- D2 EC50 (D2 DAR [1]): none
- D2 Emax (D2 DAR [1]): none
- D2 IC50 (D2 DAR [2]): none

Structure (SMILES): O=C(c1cc2ccccc2[nH]1)N1CCN(CCOc2cccnc2)CC1 [Compound 106]
- D2 IC50 (D2 DAR [2]): none

Structure (SMILES): COc1ccc(OCCCN2CCN(C(=O)c3ccc(OC)cc3)CC2)cc1 [Compound 112]
- D3 EC50 (D3 DAR): none
- D3 Emax (D3 DAR): none

Structure (SMILES): COc1ccc(CCCN2CCN(C(=O)c3ccc(OC)cc3)CC2)cc1 [Compound 113]
- D3 EC50 (D3 DAR): none
- D3 Emax (D3 DAR): none

Structure (SMILES): COc1ccc(OCCCN2CCN(C(=O)c3ccc(Cl)cc3)CC2)cc1 [Compound 115]
- D3 EC50 (D3 DAR): none
- D3 Emax (D3 DAR): none

Structure (SMILES): COc1ccc(OCCN(C)CCN(C)C(=O)c2ccc(OC)cc2)cc1 [Compound 118]
- D3 EC50 (D3 DAR): none
- D3 Emax (D3 DAR): none

Structure (SMILES): COc1ccc(OC(C)CN2CCN(C(=O)c3cc4ccccc4[nH]3)CC2)cc1 (stereo not drawn) [Compound 120]
- EC50 (D3 DAR): 82 nM

Structure (SMILES): CC(CN1CCN(C(=O)c2cc3ccccc3[nH]2)CC1)Oc1ccc(Cl)cc1 (stereo not drawn) [Compound 121]
- EC50 (D3 DAR): 32 nM

Structure (SMILES): COc1ccc(OCCCN2CCN(C(=O)c3cc4ccccc4[nH]3)CC2)cc1 [Compound 122]
- D3 EC50 (D3 DAR): none
- D3 Emax (D3 DAR): none

Structure (SMILES): COc1ccc(OCCCCN2CCN(C(=O)c3cc4ccccc4[nH]3)CC2)cc1 [Compound 123]
- D3 EC50 (D3 DAR): none
- D3 Emax (D3 DAR): none
